Laboratory results: patent US9796672B2, “Isoindoline compositions and methods for treating neurodegenerative disease” (Cognition Therapeutics, Inc., priority 2014, dated 2017)
Entries after “also recorded” stand apart in the source; their conditions may differ.

Target: Sigma-1 receptor
Assay: Sigma-1 receptor competitive radioligand binding assay
Details: read-out: Sigma-1 Receptor Affinity, Ki
Experimental: Radioligand binding assays for Sigma-1 receptors and Sigma-2 receptors were carried out by a commercial contract research organization. For Sigma-1 binding, various concentrations of test compounds from 100 μM to 1 nM were used to displace 8 nM [^3H](+)pentazocine from endogenous receptors on Jurkat cell membranes (Ganapathy M E et al. 1991, J Pharmacol. Exp. Ther. 289:251-260). 10 μM Haloperidol was used to define non-specific binding. […] 10 μM Haloperidol was used to define non-specific binding. Reactions were terminated by rapid filtration through Whatman GF/C filters using a Brandel 12R cell harvester followed by two washes with ice-cold buffer. Radioactivity on the dried filter discs was measured using a liquid scintillation analyzer (Tri-Carb 2900TR; PerkinElmer Life and Analytical Sciences). The displacement curves were plotted and the Ki values of the test ligands for the receptor subtypes were determined using GraphPad Prism (GraphPad Software Inc., San Diego, Calif.). The percentage specific binding was determined by dividing the difference between total bound (disintegrations per minute) and nonspecific bound (disintegrations per minute) by the total bound (disintegrations per minute).

Ki [nM]	SMILES
23	COc1cc(CC[C@@H](C)N2Cc3cc(Cl)c(Cl)cc3C2)ccc1O [compound 3]
33	C[C@H](CCc1ccc(Cl)c(Cl)c1)N1Cc2ccc(C(F)(F)F)cc2C1 [compound 4]
56	C[C@H](CCc1ccc(Cl)c(Cl)c1)N1Cc2cc(Cl)c(Cl)cc2C1 [compound 5]
41	COc1cc(CC[C@@H](C)N2Cc3cccc(F)c3C2)ccc1O [compound 8]
7.5	COc1cc2c(cc1OC)CN(C(C)(C)CCc1ccc(F)cc1)C2 [compound 34]
1000	COc1cc(CCC(C)(C)N2Cc3cc4c(cc3C2)OCO4)ccc1OCCO [compound 47]
100	COc1cc(CC[C@@H](C)N2Cc3ccc(S(C)(=O)=O)cc3C2)ccc1O [compound 68]

SMILES	Ki [nM]
COc1cc(CC[C@@H](C)N2Cc3cc(OC)c(OC)cc3C2)ccc1O [compound 7]	42
C[C@H](CCc1ccc(OC(=O)N(C)C)c(OC(F)(F)F)c1)N1Cc2cccc(F)c2C1 [compound 41]	520

Target: Sigma-2 receptor
Assay: Sigma-2 receptor competitive radioligand binding assay
Design: species or system rat
Details: read-out: Sigma-2 Receptor Affinity, Ki
Experimental: Radioligand binding assays for Sigma-1 receptors and Sigma-2 receptors were carried out by a commercial contract research organization. For Sigma-1 binding, various concentrations of test compounds from 100 μM to 1 nM were used to displace 8 nM [^3H](+)pentazocine from endogenous receptors on Jurkat cell membranes (Ganapathy M E et al. 1991, J Pharmacol. Exp. Ther. 289:251-260). 10 μM Haloperidol was used to define non-specific binding. For Sigma-2 receptors various concentrations of test compounds from 100 μM to 1 nM were used to displace 5 nM [^3H] […] (Bowen W D, et al. 1993, Mol. Neuropharmcol 3:117-126). 10 μM Haloperidol was used to define non-specific binding. Reactions were terminated by rapid filtration through Whatman GF/C filters using a Brandel 12R cell harvester followed by two washes with ice-cold buffer. Radioactivity on the dried filter discs was measured using a liquid scintillation analyzer (Tri-Carb 2900TR; PerkinElmer Life and Analytical Sciences). The displacement curves were plotted and the Ki values of the test ligands for the receptor subtypes were determined using GraphPad Prism (GraphPad Software Inc., San Diego, Calif.). The percentage specific binding was determined by dividing the difference between total bound (disintegrations per minute) and nonspecific bound (disintegrations per minute) by the total bound (disintegrations per minute).
The affinity of candidate sigma-2 ligand compounds at sigma-1 and sigma-2 receptors was also determined by displacement of different known labeled sigma-2 or sigma-1 ligands. Filtration assays were conducted according the previously published procedure (Xu, et al., 2005). Test compounds were dissolved in N,N-Dimethylformamide (DMF), dimethyl sulfoxide (DMSO) or ethanol and then diluted in 50 mM Tris-HCl pH 7.4 buffer containing 150 mM NaCl and 100 mM EDTA. Membrane homogenates were made from guinea pig brain for sigma-1 binding assay and rat liver for sigma-2 binding assay. Membrane homogenates were diluted with 50 mM Tris-HCl buffer, pH 8.0 and incubated at 25° C. in a total volume of 150 uL in 96 well plates with the radioligand and test compounds with concentrations ranging from 0.1 nM to 10 uM. After incubation was completed, the reactions were terminated by the addition of 150 uL of ice-cold wash buffer (10 mM Tris HCl, 150 mM NaCl, pH 7.4) using a 96 channel transfer pipette (Fisher Scientific, Pittsburgh, Pa.) and the samples harvested and filtered rapidly through 96 well fiber glass filter plate (Millipore, Billerica, Mass.) that had been presoaked with 100 uL of 50 mM Tris-HCl buffer. Each filter was washed four times with 200 uL of ice-cold wash buffer (10 mM Tris-HCl, 150 mM NaCl, pH 7.4). A Wallac 1450 MicroBeta liquid scintillation counter (Perkin Elmer, Boston, Mass.) was used to quantitate the bound radioactivity.
Nonspecific binding was determined from samples that contained 10 uM of cold haloperidol.
The binding affinity, Ki values was calculated using the method of Cheng and Prusoff.

Ki [nM]	SMILES
240	COc1cc(CC[C@@H](C)N2Cc3cc(Cl)c(Cl)cc3C2)ccc1O [compound 3]
2.2	C[C@H](CCc1ccc(Cl)c(Cl)c1)N1Cc2ccc(C(F)(F)F)cc2C1 [compound 4]
2.7	C[C@H](CCc1ccc(Cl)c(Cl)c1)N1Cc2cc(Cl)c(Cl)cc2C1 [compound 5]
100	CC(C)(C)Oc1cc(CCC(C)(C)n2cc3ccc(S(C)(=O)=O)cc3c2)ccc1O [compound 95]
6.6	CC(=O)Oc1ccc(CCC(C)(C)N2Cc3ccc(S(C)(=O)=O)cc3C2)cc1OC(C)(C)C [compound 96]
10000	COc1cccc(CCC(C)(C)N2Cc3cccc(C(=O)N4CCNCC4)c3C2)c1 [compound 98]
1200	COc1ccc(CCC(C)(C)N2Cc3cccc(C(=O)N4CCNCC4)c3C2)cc1 [compound 99]
10000	COc1ccc(CCC(C)(C)N2Cc3cccc(C(=O)N4CCNCC4)c3C2)cc1OC [compound 100]
11	COc1ccc(CCC(C)(C)N2Cc3ccc(S(C)(=O)=O)cc3C2)cc1OC [compound 101]
1.8	COc1ccc(CCC(C)(C)N2Cc3ccc(S(C)(=O)=O)cc3C2)cc1 [compound 102]
1.4	COc1cccc(CCC(C)(C)N2Cc3ccc(S(C)(=O)=O)cc3C2)c1 [compound 103]
760	COc1cccc(CCC(C)(C)n2cc3ccc(S(C)(=O)=O)cc3c2)c1 [compound 104]
180	CC(C)(CCc1ccc(Cl)cc1)N1Cc2cccc(C(=O)N3CCNCC3)c2C1 [compound 105]
240	CC(C)(CCc1ccc(Cl)c(Cl)c1)N1Cc2cccc(C(=O)N3CCNCC3)c2C1 [compound 106]
10000	COc1cc(CCC(C)(C)N2Cc3cccc(N4CCNCC4)c3C2)ccc1O [compound 107]
15	CC(C)(CCc1ccc(Cl)c(Cl)c1)N1Cc2ccc(N3CCNCC3)cc2C1 [compound 108]
31	CC(C)(CCc1ccc(Cl)c(Cl)c1)N1Cc2cccc(N3CCNCC3)c2C1 [compound 109]
10000	CC(C)(C#Cc1ccc2[nH]ncc2c1)N1Cc2ccc(S(C)(=O)=O)cc2C1 [compound 110]

SMILES	Ki [nM]
COc1cc(CC[C@@H](C)N2Cc3cc(OC)c(OC)cc3C2)ccc1O [compound 7]	68

Test system: not listed separately
Assay: Mouse liver microsome (MLM) stability
Assay type: in vitro ADME
Details: mouse liver microsomes
Experimental: A first pharmacokinetic study was performed in microsomes of mice mouse liver microsomes, MLM) by a commercial contract research organization. The studies were performed according to Obach, R. S et al. (1997) J. Pharmacol. Exp. Ther., 283: 46-58, which is incorporated herein by reference.

SMILES	Mouse liver microsomes, MLM t½ [min]
COc1cc(CC[C@@H](C)N2Cc3cc(OC)c(OC)cc3C2)ccc1O [compound 7]	155

Same assay, conditions: mouse, microsomes

Mouse liver microsomes, MLM t½ [min]	SMILES
21	COc1cc(CC[C@@H](C)N2Cc3cc(Cl)c(Cl)cc3C2)ccc1O [compound 3]
40	C[C@H](CCc1ccc(Cl)c(Cl)c1)N1Cc2ccc(C(F)(F)F)cc2C1 [compound 4]
53	C[C@H](CCc1ccc(Cl)c(Cl)c1)N1Cc2cc(Cl)c(Cl)cc2C1 [compound 5]
16	COc1cc(CC[C@@H](C)N2Cc3cccc(F)c3C2)ccc1O [compound 8]
46	COc1cc2c(cc1OC)CN(C(C)(C)CCc1ccc(F)cc1)C2 [compound 34]
91	COc1cc(CCC(C)(C)N2Cc3cc4c(cc3C2)OCO4)ccc1OCCO [compound 47]
152	COc1cc(CC[C@@H](C)N2Cc3ccc(S(C)(=O)=O)cc3C2)ccc1O [compound 68]
<1.75	CC(=O)Oc1ccc(CCC(C)(C)N2Cc3ccc(S(C)(=O)=O)cc3C2)cc1OC(C)(C)C [compound 96]
29.35	COc1cccc(CCC(C)(C)N2Cc3cccc(C(=O)N4CCNCC4)c3C2)c1 [compound 98]
93.3	COc1ccc(CCC(C)(C)N2Cc3cccc(C(=O)N4CCNCC4)c3C2)cc1 [compound 99]
156.24	COc1ccc(CCC(C)(C)N2Cc3cccc(C(=O)N4CCNCC4)c3C2)cc1OC [compound 100]
84.21	COc1ccc(CCC(C)(C)N2Cc3ccc(S(C)(=O)=O)cc3C2)cc1OC [compound 101]
20.35	COc1ccc(CCC(C)(C)N2Cc3ccc(S(C)(=O)=O)cc3C2)cc1 [compound 102]
15.2	COc1cccc(CCC(C)(C)N2Cc3ccc(S(C)(=O)=O)cc3C2)c1 [compound 103]
106.23	CC(C)(CCc1ccc(Cl)cc1)N1Cc2cccc(C(=O)N3CCNCC3)c2C1 [compound 105]
160.43	CC(C)(CCc1ccc(Cl)c(Cl)c1)N1Cc2cccc(C(=O)N3CCNCC3)c2C1 [compound 106]
25.21	COc1cc(CCC(C)(C)N2Cc3cccc(N4CCNCC4)c3C2)ccc1O [compound 107]
1236.31	CC(C)(CCc1ccc(Cl)c(Cl)c1)N1Cc2ccc(N3CCNCC3)cc2C1 [compound 108]
253.79	CC(C)(CCc1ccc(Cl)c(Cl)c1)N1Cc2cccc(N3CCNCC3)c2C1 [compound 109]
15.66	CC(C)(C#Cc1ccc2[nH]ncc2c1)N1Cc2ccc(S(C)(=O)=O)cc2C1 [compound 110]

SMILES	Mouse liver microsomes, MLM t½ [min]
C[C@H](CCc1ccc(OC(=O)N(C)C)c(OC(F)(F)F)c1)N1Cc2cccc(F)c2C1 [compound 41]	9

Test system: neuronal cultures
Assay: Functional neuronal phenotype in neuronal cultures
Assay type: cell-based
Design: key: Antagonist: antagonists (block Abeta signaling); Agonist: agonists (block Abeta signaling with U-shaped dose-response curve and toxicity at high doses); Inactive: inactive (no effect in neuronal cultures)
Details: not given

SMILES	neuronal phenotype
COc1cc(CC[C@@H](C)N2Cc3cc(Cl)c(Cl)cc3C2)ccc1O [compound 3]	Neuroactive
C[C@H](CCc1ccc(Cl)c(Cl)c1)N1Cc2ccc(C(F)(F)F)cc2C1 [compound 4]	Inactive
C[C@H](CCc1ccc(Cl)c(Cl)c1)N1Cc2cc(Cl)c(Cl)cc2C1 [compound 5]	Inactive
COc1cc(CC[C@@H](C)N2Cc3cccc(F)c3C2)ccc1O [compound 8]	Antagonist
COc1cc2c(cc1OC)CN(C(C)(C)CCc1ccc(F)cc1)C2 [compound 34]	Antagonist
C[C@H](CCc1ccc(OC(=O)N(C)C)c(OC(F)(F)F)c1)N1Cc2cccc(F)c2C1 [compound 41]	Inactive/
COc1cc(CCC(C)(C)N2Cc3cc4c(cc3C2)OCO4)ccc1OCCO [compound 47]	Inactive
COc1cc(CC[C@@H](C)N2Cc3ccc(S(C)(=O)=O)cc3C2)ccc1O [compound 68]	Inactive
CC(C)(C)Oc1cc(CCC(C)(C)n2cc3ccc(S(C)(=O)=O)cc3c2)ccc1O [compound 95]	Antagonist
CC(=O)Oc1ccc(CCC(C)(C)N2Cc3ccc(S(C)(=O)=O)cc3C2)cc1OC(C)(C)C [compound 96]	Inactive
COc1cccc(CCC(C)(C)N2Cc3cccc(C(=O)N4CCNCC4)c3C2)c1 [compound 98]	Antagonist/; also recorded: Neuroactive
COc1ccc(CCC(C)(C)N2Cc3cccc(C(=O)N4CCNCC4)c3C2)cc1 [compound 99]	Antagonist/; also recorded: Neuroactive
COc1ccc(CCC(C)(C)N2Cc3cccc(C(=O)N4CCNCC4)c3C2)cc1OC [compound 100]	Antagonist
COc1ccc(CCC(C)(C)N2Cc3ccc(S(C)(=O)=O)cc3C2)cc1OC [compound 101]	Inactive
COc1ccc(CCC(C)(C)N2Cc3ccc(S(C)(=O)=O)cc3C2)cc1 [compound 102]	Inactive
COc1cccc(CCC(C)(C)N2Cc3ccc(S(C)(=O)=O)cc3C2)c1 [compound 103]	Inactive
COc1cccc(CCC(C)(C)n2cc3ccc(S(C)(=O)=O)cc3c2)c1 [compound 104]	Inactive
CC(C)(CCc1ccc(Cl)cc1)N1Cc2cccc(C(=O)N3CCNCC3)c2C1 [compound 105]	Neuroactive
CC(C)(CCc1ccc(Cl)c(Cl)c1)N1Cc2cccc(C(=O)N3CCNCC3)c2C1 [compound 106]	Agonist
COc1cc(CCC(C)(C)N2Cc3cccc(N4CCNCC4)c3C2)ccc1O [compound 107]	Inactive
CC(C)(CCc1ccc(Cl)c(Cl)c1)N1Cc2ccc(N3CCNCC3)cc2C1 [compound 108]	Inactive
CC(C)(CCc1ccc(Cl)c(Cl)c1)N1Cc2cccc(N3CCNCC3)c2C1 [compound 109]	Agonist
CC(C)(C#Cc1ccc2[nH]ncc2c1)N1Cc2ccc(S(C)(=O)=O)cc2C1 [compound 110]	Inactive

Test system: Abeta oligomer-induced membrane trafficking deficits in primary hippocampal neurons
Assay: Membrane trafficking/exocytosis (MTT) assay
Details: read-out: Membrane Trafficking EC50; compound dosed prior to Abeta oligomer addition
Experimental: Primary hippocampal neurons from E18 Sprague-Dawley rat embryos were plated at optimized concentrations in 384 well plates in NB media (Invitrogen). Neurons were maintained in cultures for 3 weeks, with twice weekly feeding of NB media with N2 supplement (Invitrogen).
MTT reagent (3-(4,5-dimethylthizaol-2yl)-2,5diphenyl tetrazolium bromide) (Roche Molecular Biochemicals) was reconstituted in phosphate buffered saline to 5 mg/mL. 10 μL of MTT labeling reagent is added to each well and incubated at 37° C. for 1 h, then imaged. Exocytosis was assessed by automated microscopy and image processing to quantify the amount of endocytosed and exocytosed formazan.
Each assay plate was formatted so that compounds are tested with and without Abeta oligomer on each plate. […] Reduced formazan was first visible in intracellular vesicles. […] The dye precipitated in the aqueous environment of the culture and formed needle-shaped crystals on the surface of the neuron.

SMILES	EC50 [nM]
COc1cc(CC[C@@H](C)N2Cc3cc(Cl)c(Cl)cc3C2)ccc1O [compound 3]	3800
C[C@H](CCc1ccc(Cl)c(Cl)c1)N1Cc2ccc(C(F)(F)F)cc2C1 [compound 4]	> 20000
C[C@H](CCc1ccc(Cl)c(Cl)c1)N1Cc2cc(Cl)c(Cl)cc2C1 [compound 5]	> 20000
COc1cc(CC[C@@H](C)N2Cc3cccc(F)c3C2)ccc1O [compound 8]	250 to 400
COc1cc2c(cc1OC)CN(C(C)(C)CCc1ccc(F)cc1)C2 [compound 34]	13000
C[C@H](CCc1ccc(OC(=O)N(C)C)c(OC(F)(F)F)c1)N1Cc2cccc(F)c2C1 [compound 41]	> 20000
CC(C)(C)Oc1cc(CCC(C)(C)n2cc3ccc(S(C)(=O)=O)cc3c2)ccc1O [compound 95]	1700
CC(=O)Oc1ccc(CCC(C)(C)N2Cc3ccc(S(C)(=O)=O)cc3C2)cc1OC(C)(C)C [compound 96]	100000
COc1cccc(CCC(C)(C)N2Cc3cccc(C(=O)N4CCNCC4)c3C2)c1 [compound 98]	350
COc1ccc(CCC(C)(C)N2Cc3cccc(C(=O)N4CCNCC4)c3C2)cc1 [compound 99]	200
COc1ccc(CCC(C)(C)N2Cc3cccc(C(=O)N4CCNCC4)c3C2)cc1OC [compound 100]	1100
COc1ccc(CCC(C)(C)N2Cc3ccc(S(C)(=O)=O)cc3C2)cc1OC [compound 101]	100000
COc1ccc(CCC(C)(C)N2Cc3ccc(S(C)(=O)=O)cc3C2)cc1 [compound 102]	100000
COc1cccc(CCC(C)(C)N2Cc3ccc(S(C)(=O)=O)cc3C2)c1 [compound 103]	100000
COc1cccc(CCC(C)(C)n2cc3ccc(S(C)(=O)=O)cc3c2)c1 [compound 104]	100000
CC(C)(CCc1ccc(Cl)cc1)N1Cc2cccc(C(=O)N3CCNCC3)c2C1 [compound 105]	2600
CC(C)(CCc1ccc(Cl)c(Cl)c1)N1Cc2cccc(C(=O)N3CCNCC3)c2C1 [compound 106]	3400
COc1cc(CCC(C)(C)N2Cc3cccc(N4CCNCC4)c3C2)ccc1O [compound 107]	100000
CC(C)(CCc1ccc(Cl)c(Cl)c1)N1Cc2ccc(N3CCNCC3)cc2C1 [compound 108]	100000
CC(C)(CCc1ccc(Cl)c(Cl)c1)N1Cc2cccc(N3CCNCC3)c2C1 [compound 109]	100000
CC(C)(C#Cc1ccc2[nH]ncc2c1)N1Cc2ccc(S(C)(=O)=O)cc2C1 [compound 110]	100000
